Results on eight compounds are retold here after ChEMBL document CHEMBL3991601, “The target landscape of clinical kinase drugs” (Science, 2017).

SMILES strings stand for the structures. Active and inactive are the calls of the source. Rule as the data show it, for most assays here: actives have a measured Kd and inactives only a lower limit. A value given as a limit tells only on which side of the number the result lay.

Experiment [1] concerns the target T1, Bifunctional phosphoribosylaminoimidazole carboxylase/phosphoribosylaminoimidazole succinocarboxamide synthetase (Homo sapiens, UniProt P22234).
T1 sequence (P22234 whole entry): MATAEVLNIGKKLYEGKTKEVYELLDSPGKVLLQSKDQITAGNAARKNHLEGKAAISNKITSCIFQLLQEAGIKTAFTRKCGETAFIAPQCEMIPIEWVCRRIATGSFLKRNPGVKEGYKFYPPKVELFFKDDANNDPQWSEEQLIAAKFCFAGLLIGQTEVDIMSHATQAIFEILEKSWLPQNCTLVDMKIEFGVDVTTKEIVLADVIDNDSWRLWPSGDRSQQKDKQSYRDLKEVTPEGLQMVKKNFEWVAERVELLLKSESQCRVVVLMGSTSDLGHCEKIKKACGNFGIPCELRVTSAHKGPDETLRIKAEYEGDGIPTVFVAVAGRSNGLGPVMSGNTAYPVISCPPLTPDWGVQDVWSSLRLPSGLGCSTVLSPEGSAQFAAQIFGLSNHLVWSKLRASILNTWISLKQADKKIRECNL

In experiment [2] the target is Ribosomal protein S6 kinase alpha-4 (Homo sapiens, UniProt O75676).
Ribosomal protein S6 kinase alpha-4, sequence (O75676 whole entry): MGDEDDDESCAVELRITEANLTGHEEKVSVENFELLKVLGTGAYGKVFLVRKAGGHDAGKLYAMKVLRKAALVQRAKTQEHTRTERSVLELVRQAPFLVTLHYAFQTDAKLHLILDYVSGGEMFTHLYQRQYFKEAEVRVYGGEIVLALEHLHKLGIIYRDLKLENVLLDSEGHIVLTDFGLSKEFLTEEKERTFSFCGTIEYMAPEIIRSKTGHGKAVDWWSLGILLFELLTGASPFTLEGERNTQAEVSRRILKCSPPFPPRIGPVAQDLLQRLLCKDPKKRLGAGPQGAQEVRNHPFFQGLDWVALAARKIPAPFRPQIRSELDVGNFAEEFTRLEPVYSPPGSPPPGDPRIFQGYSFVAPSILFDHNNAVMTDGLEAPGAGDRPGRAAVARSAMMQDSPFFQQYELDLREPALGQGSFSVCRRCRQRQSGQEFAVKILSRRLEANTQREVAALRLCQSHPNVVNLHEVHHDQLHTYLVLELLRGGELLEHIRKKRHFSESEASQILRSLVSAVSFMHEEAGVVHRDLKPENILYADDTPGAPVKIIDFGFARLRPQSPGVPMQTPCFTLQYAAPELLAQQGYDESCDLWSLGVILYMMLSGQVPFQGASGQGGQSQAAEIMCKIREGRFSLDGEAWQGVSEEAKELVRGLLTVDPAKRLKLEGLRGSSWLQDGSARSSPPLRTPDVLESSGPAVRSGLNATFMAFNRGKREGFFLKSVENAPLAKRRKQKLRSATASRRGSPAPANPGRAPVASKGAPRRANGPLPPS
The target in experiment [3] is Bone morphogenetic protein receptor type-1B (Homo sapiens, UniProt O00238).
For another experiment, the target named is T2, ADP/ATP translocase 2 (Homo sapiens, UniProt P05141).
T2 sequence (P05141 whole entry): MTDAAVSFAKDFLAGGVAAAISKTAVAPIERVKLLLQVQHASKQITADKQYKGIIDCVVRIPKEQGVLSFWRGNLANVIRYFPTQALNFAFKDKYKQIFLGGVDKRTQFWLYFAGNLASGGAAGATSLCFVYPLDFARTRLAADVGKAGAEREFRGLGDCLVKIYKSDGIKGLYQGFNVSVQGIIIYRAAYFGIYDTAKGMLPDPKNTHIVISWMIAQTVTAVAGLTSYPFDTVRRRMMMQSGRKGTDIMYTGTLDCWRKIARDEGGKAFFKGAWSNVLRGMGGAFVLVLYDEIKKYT

The target of experiment [4] is Epithelial discoidin domain-containing receptor 1 (Homo sapiens, UniProt Q08345).
Epithelial discoidin domain-containing receptor 1, sequence (Q08345 whole entry, the tested form may be a part): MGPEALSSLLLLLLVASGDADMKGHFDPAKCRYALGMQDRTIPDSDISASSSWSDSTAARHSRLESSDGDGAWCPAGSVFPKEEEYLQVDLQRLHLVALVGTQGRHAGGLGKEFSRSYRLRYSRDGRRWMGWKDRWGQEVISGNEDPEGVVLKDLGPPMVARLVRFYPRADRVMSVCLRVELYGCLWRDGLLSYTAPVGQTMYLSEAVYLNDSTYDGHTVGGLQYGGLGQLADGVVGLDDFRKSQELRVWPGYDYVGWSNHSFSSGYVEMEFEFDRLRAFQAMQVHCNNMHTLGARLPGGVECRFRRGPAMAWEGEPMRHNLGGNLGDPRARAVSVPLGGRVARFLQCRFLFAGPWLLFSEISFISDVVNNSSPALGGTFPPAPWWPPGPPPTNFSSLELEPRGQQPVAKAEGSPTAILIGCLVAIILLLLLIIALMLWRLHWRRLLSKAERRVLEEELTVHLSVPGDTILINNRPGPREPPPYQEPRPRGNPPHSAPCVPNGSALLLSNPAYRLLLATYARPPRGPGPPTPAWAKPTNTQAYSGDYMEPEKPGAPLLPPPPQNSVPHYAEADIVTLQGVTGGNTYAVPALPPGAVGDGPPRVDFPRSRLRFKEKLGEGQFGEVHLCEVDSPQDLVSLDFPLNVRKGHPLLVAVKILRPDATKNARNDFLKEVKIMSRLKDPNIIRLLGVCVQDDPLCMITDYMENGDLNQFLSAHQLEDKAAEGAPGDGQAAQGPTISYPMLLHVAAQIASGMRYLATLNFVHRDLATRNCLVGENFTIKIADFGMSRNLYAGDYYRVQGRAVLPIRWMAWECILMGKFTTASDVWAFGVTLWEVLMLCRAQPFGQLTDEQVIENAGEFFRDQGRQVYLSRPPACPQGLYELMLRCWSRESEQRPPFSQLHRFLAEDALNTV
The target of a further experiment is Insulin receptor (Homo sapiens, UniProt P06213).
Insulin receptor, sequence (P06213 28-758 limits assumed): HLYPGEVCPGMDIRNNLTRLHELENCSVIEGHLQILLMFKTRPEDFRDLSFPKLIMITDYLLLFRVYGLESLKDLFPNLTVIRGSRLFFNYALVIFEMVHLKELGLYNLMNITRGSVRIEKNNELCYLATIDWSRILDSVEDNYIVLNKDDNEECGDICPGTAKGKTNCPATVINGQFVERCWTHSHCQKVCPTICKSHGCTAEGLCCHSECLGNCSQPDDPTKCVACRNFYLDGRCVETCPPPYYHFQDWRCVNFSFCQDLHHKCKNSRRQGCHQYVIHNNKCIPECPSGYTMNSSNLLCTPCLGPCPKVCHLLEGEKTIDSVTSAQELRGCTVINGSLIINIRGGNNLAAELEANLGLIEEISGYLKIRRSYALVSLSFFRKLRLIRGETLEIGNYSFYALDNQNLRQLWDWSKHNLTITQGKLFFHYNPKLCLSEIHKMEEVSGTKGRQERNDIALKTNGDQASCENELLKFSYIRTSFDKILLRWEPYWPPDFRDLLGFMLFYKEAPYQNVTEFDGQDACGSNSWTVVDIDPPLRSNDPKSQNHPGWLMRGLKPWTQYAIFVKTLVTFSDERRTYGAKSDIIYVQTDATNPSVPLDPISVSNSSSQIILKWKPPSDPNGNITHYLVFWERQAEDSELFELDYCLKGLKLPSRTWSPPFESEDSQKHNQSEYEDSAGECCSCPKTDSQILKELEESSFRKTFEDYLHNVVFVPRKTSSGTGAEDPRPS
Insulin receptor, sequence (P06213 763-1382 limits assumed): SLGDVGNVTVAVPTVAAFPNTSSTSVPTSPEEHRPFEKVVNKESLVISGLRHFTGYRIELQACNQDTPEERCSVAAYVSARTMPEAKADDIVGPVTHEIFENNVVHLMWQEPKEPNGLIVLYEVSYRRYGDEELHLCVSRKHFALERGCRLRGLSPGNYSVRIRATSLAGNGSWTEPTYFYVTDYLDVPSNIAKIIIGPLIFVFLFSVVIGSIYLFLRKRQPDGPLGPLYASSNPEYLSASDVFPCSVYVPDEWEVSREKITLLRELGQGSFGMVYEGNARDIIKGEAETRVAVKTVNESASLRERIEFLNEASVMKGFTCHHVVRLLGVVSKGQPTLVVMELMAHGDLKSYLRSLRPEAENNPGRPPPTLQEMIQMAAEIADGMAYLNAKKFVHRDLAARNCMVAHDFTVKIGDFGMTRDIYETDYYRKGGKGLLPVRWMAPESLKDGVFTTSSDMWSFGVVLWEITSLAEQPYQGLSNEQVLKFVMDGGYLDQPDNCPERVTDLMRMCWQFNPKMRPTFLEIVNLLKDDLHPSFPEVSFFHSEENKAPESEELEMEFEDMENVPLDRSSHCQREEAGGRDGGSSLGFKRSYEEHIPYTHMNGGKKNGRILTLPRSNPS
Experiment [5] concerns the target T3, Ferrochelatase, mitochondrial (Homo sapiens, UniProt P22830).
T3 sequence (P22830 whole entry): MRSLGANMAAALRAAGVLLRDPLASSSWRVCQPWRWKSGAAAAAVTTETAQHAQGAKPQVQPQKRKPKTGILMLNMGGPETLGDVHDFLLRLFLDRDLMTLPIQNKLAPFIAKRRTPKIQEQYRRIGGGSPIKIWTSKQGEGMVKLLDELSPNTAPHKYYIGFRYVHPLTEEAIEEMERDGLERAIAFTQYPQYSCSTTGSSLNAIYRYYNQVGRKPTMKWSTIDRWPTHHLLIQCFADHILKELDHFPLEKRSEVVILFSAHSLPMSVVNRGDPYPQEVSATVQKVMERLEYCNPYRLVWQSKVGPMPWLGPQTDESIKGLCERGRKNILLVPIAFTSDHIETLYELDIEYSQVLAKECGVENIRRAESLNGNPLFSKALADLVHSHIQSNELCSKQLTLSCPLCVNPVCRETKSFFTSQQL

Experiment [6] addresses Tyrosine-protein kinase Fer (Homo sapiens, UniProt P16591).
For experiment [7], the target named is T4, ATP-dependent RNA helicase DHX30 (Homo sapiens, UniProt Q7L2E3).
T4 sequence (Q7L2E3 whole entry): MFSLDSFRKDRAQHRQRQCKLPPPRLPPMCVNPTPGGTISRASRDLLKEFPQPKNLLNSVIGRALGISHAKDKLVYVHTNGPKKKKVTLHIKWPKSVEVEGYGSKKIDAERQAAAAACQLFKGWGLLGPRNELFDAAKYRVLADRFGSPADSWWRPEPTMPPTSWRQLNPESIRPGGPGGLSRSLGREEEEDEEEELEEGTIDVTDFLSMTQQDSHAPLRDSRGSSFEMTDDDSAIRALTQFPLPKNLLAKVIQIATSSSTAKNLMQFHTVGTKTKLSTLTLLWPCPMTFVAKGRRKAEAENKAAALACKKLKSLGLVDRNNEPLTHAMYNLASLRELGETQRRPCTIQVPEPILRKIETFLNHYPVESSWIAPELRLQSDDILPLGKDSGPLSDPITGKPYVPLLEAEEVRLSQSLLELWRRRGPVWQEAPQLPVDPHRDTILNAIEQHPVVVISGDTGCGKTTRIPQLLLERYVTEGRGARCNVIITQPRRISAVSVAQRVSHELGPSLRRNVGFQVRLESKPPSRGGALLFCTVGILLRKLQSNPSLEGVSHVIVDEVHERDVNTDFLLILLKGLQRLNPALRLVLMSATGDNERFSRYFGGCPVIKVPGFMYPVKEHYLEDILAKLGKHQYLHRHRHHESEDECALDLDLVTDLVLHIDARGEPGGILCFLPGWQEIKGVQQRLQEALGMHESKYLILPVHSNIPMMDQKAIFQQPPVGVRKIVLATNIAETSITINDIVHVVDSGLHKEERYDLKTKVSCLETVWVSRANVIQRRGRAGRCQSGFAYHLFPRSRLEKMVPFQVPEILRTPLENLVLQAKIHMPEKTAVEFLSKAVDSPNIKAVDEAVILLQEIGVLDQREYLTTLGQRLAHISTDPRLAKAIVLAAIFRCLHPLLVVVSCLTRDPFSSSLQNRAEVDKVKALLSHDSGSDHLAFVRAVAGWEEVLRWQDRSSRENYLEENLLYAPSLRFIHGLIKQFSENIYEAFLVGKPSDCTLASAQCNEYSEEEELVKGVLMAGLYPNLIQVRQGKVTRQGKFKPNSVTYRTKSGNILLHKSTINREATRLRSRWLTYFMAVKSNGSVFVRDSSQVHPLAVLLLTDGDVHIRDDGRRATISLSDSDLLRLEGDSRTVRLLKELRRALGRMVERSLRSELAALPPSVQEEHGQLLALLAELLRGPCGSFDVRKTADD

In experiment [8] the target is Cyclin-dependent kinase 5 (Homo sapiens, UniProt Q00535).
Cyclin-dependent kinase 5, sequence (Q00535 whole entry): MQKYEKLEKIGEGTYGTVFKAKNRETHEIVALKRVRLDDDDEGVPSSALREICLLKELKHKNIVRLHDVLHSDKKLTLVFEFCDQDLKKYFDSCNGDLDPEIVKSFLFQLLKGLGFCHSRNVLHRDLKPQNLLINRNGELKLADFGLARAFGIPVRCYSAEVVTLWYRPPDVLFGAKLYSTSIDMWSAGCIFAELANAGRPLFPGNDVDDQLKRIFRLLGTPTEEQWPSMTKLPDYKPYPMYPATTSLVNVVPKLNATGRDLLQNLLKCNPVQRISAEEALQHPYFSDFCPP
For experiment [9], the target named is G protein-coupled receptor kinase 6 (Homo sapiens, UniProt P43250).
G protein-coupled receptor kinase 6, sequence (P43250 whole entry): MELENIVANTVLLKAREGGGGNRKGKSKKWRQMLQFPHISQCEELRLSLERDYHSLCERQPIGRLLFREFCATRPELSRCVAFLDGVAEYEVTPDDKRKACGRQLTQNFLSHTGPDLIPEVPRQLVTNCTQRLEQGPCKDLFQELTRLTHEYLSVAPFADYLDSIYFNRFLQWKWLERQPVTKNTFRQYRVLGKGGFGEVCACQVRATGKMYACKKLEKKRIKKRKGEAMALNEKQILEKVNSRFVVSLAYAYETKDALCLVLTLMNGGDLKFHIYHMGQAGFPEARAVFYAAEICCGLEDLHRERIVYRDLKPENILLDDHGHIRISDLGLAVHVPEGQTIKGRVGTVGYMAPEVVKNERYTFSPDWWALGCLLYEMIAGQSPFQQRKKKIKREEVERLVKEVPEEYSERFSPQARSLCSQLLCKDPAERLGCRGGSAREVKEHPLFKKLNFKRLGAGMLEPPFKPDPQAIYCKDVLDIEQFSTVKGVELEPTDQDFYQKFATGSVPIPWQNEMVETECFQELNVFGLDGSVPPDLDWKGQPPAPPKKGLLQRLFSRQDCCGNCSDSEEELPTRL
Experiment [10] concerns the target Proto-oncogene tyrosine-protein kinase receptor Ret (Homo sapiens, UniProt P07949).
Experiment [11] concerns the target Serine/threonine-protein kinase N1 (Homo sapiens, UniProt Q16512).
Also: in the data inactive means no Kd found up to 30 µM.

Tyrosine-protein kinase Fer, sequence (P16591 whole entry): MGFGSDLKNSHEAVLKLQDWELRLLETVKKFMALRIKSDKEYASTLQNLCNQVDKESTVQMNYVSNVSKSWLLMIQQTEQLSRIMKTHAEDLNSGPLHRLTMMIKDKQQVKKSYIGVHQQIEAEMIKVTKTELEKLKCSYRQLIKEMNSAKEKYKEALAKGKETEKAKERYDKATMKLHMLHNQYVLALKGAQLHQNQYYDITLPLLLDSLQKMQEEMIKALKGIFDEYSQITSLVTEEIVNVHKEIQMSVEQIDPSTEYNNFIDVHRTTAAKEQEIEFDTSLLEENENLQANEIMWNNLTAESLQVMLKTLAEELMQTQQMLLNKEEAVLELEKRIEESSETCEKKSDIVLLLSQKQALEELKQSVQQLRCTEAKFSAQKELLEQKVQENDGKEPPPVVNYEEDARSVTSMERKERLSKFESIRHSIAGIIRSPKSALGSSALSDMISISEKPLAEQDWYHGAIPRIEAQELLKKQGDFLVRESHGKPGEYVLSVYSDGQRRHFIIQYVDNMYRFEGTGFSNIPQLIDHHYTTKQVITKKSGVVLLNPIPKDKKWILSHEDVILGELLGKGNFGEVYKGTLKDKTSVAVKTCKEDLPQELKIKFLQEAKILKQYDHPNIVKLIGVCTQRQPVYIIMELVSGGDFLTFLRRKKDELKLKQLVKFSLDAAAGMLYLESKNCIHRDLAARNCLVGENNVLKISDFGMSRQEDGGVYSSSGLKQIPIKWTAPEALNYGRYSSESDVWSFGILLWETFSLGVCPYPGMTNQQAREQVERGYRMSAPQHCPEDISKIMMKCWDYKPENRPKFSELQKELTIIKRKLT

Consider `COc1c(OCCCN2CCOCC2)ccc2c1N=C(NC(=O)c1cnc(N)nc1)N1CCN=C21` [COPANLISIB], for which the Kd (in [1]; in experiment [2]; in [3]; on ADP/ATP translocase 2; in experiment [4]; on Insulin receptor) was > 30 µM (inactive) each time. Moreover, the Kd in experiment [5], in experiment [6], in experiment [7], in experiment [8], in experiment [9] and in experiment [10] was > 30 µM (inactive) throughout. The Kd (commonly the constant that tells how readily two partners part at equilibrium) in experiment [11] is > 30 µM (inactive).
On to `COCC(=O)NC/C=C/c1ccc2ncnc(Nc3ccc(Oc4ccc(C)nc4)c(C)c3)c2c1` [CP-724714], for which the Kd (in [1]; in experiment [2]; in [3]; at ADP/ATP translocase 2; in [4]; at Insulin receptor) was > 30 µM (inactive) throughout. The dissociation constant Kd in experiment [5] is 28.6 µM (active); in [6] it was > 30 µM (inactive); in experiment [7] it was > 30 µM (inactive); in experiment [8] it was > 30 µM (inactive); in experiment [9], > 30 µM (inactive); in experiment [10], > 30 µM (inactive). In addition, the Kd in experiment [11] is > 30 µM (inactive).
Regarding `Cc1cccc(-c2nn3c(c2-c2ccnc4ccc(C(N)=O)cc24)CCC3)n1` [GALUNISERTIB], the Kd (in experiment [1]; in [2]; in experiment [3]; on ADP/ATP translocase 2; in experiment [4]; at Insulin receptor) was > 30 µM (inactive) in each case. Further, the Kd in experiment [5], in experiment [6], in [7], in experiment [8], in experiment [9] and in experiment [10] was > 30 µM (inactive) in each case. In experiment [11], the Kd is > 30 µM (inactive).
With `COc1ccc(S(=O)(=O)N(C(C)=O)c2ccccc2/C=C/c2cc[n+]([O-])cc2)cc1` [HMN-214], the Kd (in experiment [1]; in [2]; in [3]; on ADP/ATP translocase 2; in experiment [4]; at Insulin receptor) was > 30 µM (inactive) throughout. Further, the Kd in [5], in [6], in experiment [7], in [8], in [9] and in [10] was > 30 µM (inactive) in each case. Further, in [11], the Kd is > 30 µM (inactive).
For `CNC(=O)c1cccc2cc(Oc3ccnc4cc(OCC5(N)CC5)c(OC)cc34)ccc12` [LUCITANIB], the Kd in [1] is > 30 µM (inactive); in experiment [2] it was > 30 µM (inactive); in experiment [3], > 30 µM (inactive); on ADP/ATP translocase 2, > 30 µM (inactive); in [4] it was 0.014 µM (active); at Insulin receptor it was > 30 µM (inactive). The Kd was > 30 µM (inactive) in [5]; > 30 µM (inactive) in experiment [6]; > 30 µM (inactive) in experiment [7]; > 30 µM (inactive) in experiment [8]; > 30 µM (inactive) in experiment [9]; 0.005 µM (active) in experiment [10]. Besides, the Kd in [11] is > 30 µM (inactive).
For the compound `NC1(c2ccc(-c3nc4ccn5c(=O)[nH]nc5c4cc3-c3ccccc3)cc2)CCC1` [MK-2206], the Kd (in experiment [1]; in experiment [2]; in experiment [3]; on ADP/ATP translocase 2; in [4]; at Insulin receptor) was > 30 µM (inactive) throughout. Besides, the equilibrium dissociation constant (Kd) in experiment [5] was 1.07 µM (active); in experiment [6], > 30 µM (inactive); in experiment [7], > 30 µM (inactive); in experiment [8] it was > 30 µM (inactive); in experiment [9], > 30 µM (inactive); in [10], > 30 µM (inactive). The Kd in experiment [11] is > 30 µM (inactive).
As for `Cn1cc(-c2cnc3ccc4ccc(CS(=O)(=O)NCc5ccccn5)cc4c(=O)c3c2)cn1` [MK-8033], the Kd (in experiment [1]; in experiment [2]; in experiment [3]; at ADP/ATP translocase 2; in experiment [4]; at Insulin receptor) was > 30 µM (inactive) in each case. The Kd in experiment [5] is 32.6 µM (active); in experiment [6], > 30 µM (inactive); in [7] it was > 30 µM (inactive); in [8], > 30 µM (inactive); in experiment [9] it was > 30 µM (inactive); in experiment [10], > 30 µM (inactive). For the same compound, the Kd in experiment [11] is > 30 µM (inactive).
Regarding `Cc1cnc(NC(=O)Nc2cc(Br)c(C)cc2OC[C@@H]2CNCCO2)cn1` [RABUSERTIB], the Kd (in experiment [1]; in experiment [2]; in [3]; on ADP/ATP translocase 2; in [4]; on Insulin receptor) was > 30 µM (inactive) in each case. For the same compound, the equilibrium dissociation constant (Kd) is 3.82 µM in experiment [5]; > 30 µM (inactive) in experiment [6]; > 30 µM (inactive) in [7]; > 30 µM (inactive) in experiment [8]; > 30 µM (inactive) in [9]; > 30 µM (inactive) in experiment [10]. For the same compound, the Kd in [11] was > 30 µM (inactive).
